The values below come from ChEMBL document CHEMBL1125173, “Cannabimimetic activity of novel enantiomeric, benzofuran cannabinoids” (1990).

Assay type in all cases: functional
Test [1] relates to Mus musculus. Briefly: Psychotropic Effect evaluated by Mouse Ring Test at a dose of 0.1 mg/kg.
Test [2] concerns Mus musculus. Briefly: Psychotropic Effect evaluated by Mouse Ring Test at a dose of 10 mg/kg.
Test [3] deals with Mus musculus. Briefly: Psychotropic Effect evaluated by Mouse Ring Test at a dose of 1 mg/kg.
Test [4] relates to Mus musculus. Briefly: Psychotropic Effect evaluated by Mouse Ring Test at a dose of 20 mg/kg.
Test [5] has as its system Columba livia. Put plainly: Effective Dose when administered at a dose of 0.99 mg/kg in pigeons. To be noted: in Columbidae.
For test [6], the system named is Rattus norvegicus. Put plainly: Effective Dose when administered at a dose of 0.98 mg/kg in rats.
For test [7], the system named is Columba livia. Briefly: Effective Dose when administered at a dose of 0.78 mg/kg in pigeons. To be noted: in Columbidae.
Test [8] has as its system Columba livia. Put plainly: Effective Dose when administered in pigeons. The conditions noted are these: in Columbidae.
Test [9] has as its system Rattus norvegicus. Put plainly: Effective Dose when administered at a dose of 0.94 mg/kg in rats.

As to `C=C1[C@H]2Oc3cc(C(C)(C)CCCCCC)cc(O)c3[C@H]2[C@@H]2C[C@H]1C2(C)C`, the “Psychotropic Effect” value turned out to be 13.2 in the test on Mus musculus [1], 66.1 in the test on Mus musculus [2], 42 in the test with Mus musculus [3] and 89.2 in the test on Mus musculus [4]. Further, the values for the ED50 with Columba livia [5] and in the test with Rattus norvegicus [6] were 0.17 mg/kg and 0.72 mg/kg, respectively.
For `CCCCCc1cc(O)c2c(c1)OC(C)(C)[C@@H]1CC=C(C)C[C@@H]21` [DELTA-8-TETRAHYDROCANNABINOL], the entries for the “Psychotropic Effect” value in the test on Mus musculus [1], in the test with Mus musculus [2] and in the test on Mus musculus [3] were 13.2, 41.3 and 20.9, respectively.
`C=C1[C@H]2Oc3cc(C(C)(C)CCCCCC)cc(O)c3[C@H]2[C@H]2C[C@@H]1C2(C)C`: the “Psychotropic Effect” value in the test with Mus musculus [1] was determined as 10; with Mus musculus [2], 28.1; with Mus musculus [3], 20; in the test on Mus musculus [4], 43.2. The 50% effect level with Columba livia [7] (ED50) was put at a dose of 3.57 mg/kg.
Regarding `CCCCCc1cc(O)c2c(c1)OC(C)(C)[C@@H]1CCC(C)=C[C@@H]21` [DRONABINOL], the 50% effective dose (ED50) was found to be 0.18 mg/kg in the test on Columba livia [8] and 0.66 mg/kg with Rattus norvegicus [9].
